ChEMBL document CHEMBL4680243, “N-benzyl 4,4-disubstituted piperidines as a potent class of influenza H1N1 virus inhibitors showing a novel mechanism of hemagglutinin fusion peptide interaction” (Eur J Med Chem, 2020)
Calls of active or inactive are those of the source. No cut-off for these calls is given here.

How the values were obtained:
Influenza A virus [1] = experiment: Antiviral activity against Influenza A virus (A/PR 8/34 (H1N1)) infected in MDCK cells assessed as reduction in virus-induced cytopathic effect measured after 72 hrs by MTS assay; type: functional, organism-based; details: A/Puerto Rico/8/1934(H1N1)
[2] = Cytotoxicity against MDCK cells assessed as reduction in cell viability measured after 72 hrs by MTS assay; type: cell-based, Canis lupus familiaris; details: dog
[3] = biological target: T1, Transmembrane protease serine 11D (Homo sapiens) (UniProt O60235); experiment: Inhibition of recombinant human N-terminal His-tagged HAT (Ala42 to Ile418 residues) expressed in mouse NSO cells using Boc-Gln-Ala-Arg-AMC as substrate preincubated for 15 mins followed by substrate addition and measured for 60 mins by fluorescence assay; details: time 75.0 min
T1 sequence (whole entry): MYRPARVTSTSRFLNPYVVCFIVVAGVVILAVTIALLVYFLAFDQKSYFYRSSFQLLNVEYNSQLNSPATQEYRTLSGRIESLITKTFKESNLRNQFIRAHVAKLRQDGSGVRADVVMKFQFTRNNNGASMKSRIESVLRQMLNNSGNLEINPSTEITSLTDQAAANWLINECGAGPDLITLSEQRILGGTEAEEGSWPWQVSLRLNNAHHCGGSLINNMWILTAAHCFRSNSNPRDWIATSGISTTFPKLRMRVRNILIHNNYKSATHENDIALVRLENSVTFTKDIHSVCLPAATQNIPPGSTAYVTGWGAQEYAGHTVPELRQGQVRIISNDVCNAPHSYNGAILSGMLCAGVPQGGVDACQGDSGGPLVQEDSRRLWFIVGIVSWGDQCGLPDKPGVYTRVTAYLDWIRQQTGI

[4] = biological target: Cathepsin B (Homo sapiens) (UniProt P07858); experiment: Inhibition of human liver cathepsin B using Z-Phe-Arg-AMC as substrate preincubated for 15 mins followed by substrate addition and measured for 60 mins by fluorescence assay; details: time 75.0 min
[5] = Selectivity index, ratio of CC50 for MDCK cells to EC50 for antiviral activity against Influenza A virus (A/Puerto Rico/8/1934(H1N1)) infected in MDCK cells; type: toxicity, cell-based; details: dog, read-out: Ratio CC50/EC50
Influenza A virus [6] = experiment: Antiviral activity against Influenza A virus (A/PR 8/34 (H1N1)) infected in MDCK cells assessed as reduction in virus-induced cytopathic effect measured after 72 hrs by microscopic analysis; type: functional, organism-based; details: A/Puerto Rico/8/1934(H1N1)
[7] = biological target: Procathepsin L (Homo sapiens) (UniProt P07711); experiment: Inhibition of human liver cathepsin L using Z-Phe-Arg-AMC as substrate preincubated for 15 mins followed by substrate addition and measured for 60 mins by fluorescence assay; details: time 75.0 min
Procathepsin L (Homo sapiens), sequence (P07711 114-333 limits assumed): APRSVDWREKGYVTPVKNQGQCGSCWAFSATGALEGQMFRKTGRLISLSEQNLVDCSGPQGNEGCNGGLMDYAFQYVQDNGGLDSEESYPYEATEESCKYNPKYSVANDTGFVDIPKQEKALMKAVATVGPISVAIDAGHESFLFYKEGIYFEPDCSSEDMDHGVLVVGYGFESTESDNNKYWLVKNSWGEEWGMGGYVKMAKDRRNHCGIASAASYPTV

[8] = Cytotoxicity against MDCK cells assessed as change in cell morphology measured after 72 hrs by microscopic analysis; type: cell-based, Canis lupus familiaris; details: dog
[9] = biological target: T2, Cathepsin F (Homo sapiens) (UniProt Q9UBX1); experiment: Inhibition of recombinant human cathepsin F expressed in baculovirus infected insect cells using Z-Phe-Arg-AMC as substrate preincubated for 15 mins followed by substrate addition and measured for 60 mins by fluorescence assay; details: time 75.0 min
T2 sequence (whole entry): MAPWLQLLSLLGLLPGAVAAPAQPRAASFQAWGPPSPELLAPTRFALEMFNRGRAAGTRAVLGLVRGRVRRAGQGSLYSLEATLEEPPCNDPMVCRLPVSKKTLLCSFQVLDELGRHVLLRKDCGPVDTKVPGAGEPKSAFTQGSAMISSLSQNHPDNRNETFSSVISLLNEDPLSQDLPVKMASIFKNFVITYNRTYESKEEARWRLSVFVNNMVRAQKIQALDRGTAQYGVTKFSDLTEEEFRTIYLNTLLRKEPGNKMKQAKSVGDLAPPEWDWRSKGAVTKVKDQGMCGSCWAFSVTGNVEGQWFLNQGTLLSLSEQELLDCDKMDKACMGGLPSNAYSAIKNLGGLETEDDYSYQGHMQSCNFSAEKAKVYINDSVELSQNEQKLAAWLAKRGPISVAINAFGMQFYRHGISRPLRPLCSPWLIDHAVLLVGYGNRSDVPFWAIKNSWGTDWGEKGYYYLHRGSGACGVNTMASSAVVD

Trypsin (Homo sapiens) [10] = biological target: T3, Trypsin (Homo sapiens) (UniProt P07477+P07478+P35030); experiment: Inhibition of human trypsin using Boc-Gln-Ala-Arg-AMC as substrate preincubated for 15 mins followed by substrate addition and measured for 60 mins by fluorescence assay; type: protein assay; details: time 75.0 min
Influenza A virus [11] = experiment: Antiviral activity against Influenza A virus (A/PR 8/34 (H1N1)) infected in MDCK cells assessed as reduction in viral RNA synthesis at 2 uM treated at 5 hrs post-infection by RT-qPCR analysis; type: functional, organism-based; details: A/Puerto Rico/8/1934(H1N1)
[12] = biological target: Cathepsin B (Homo sapiens) (UniProt P07858); experiment: Inhibition of human liver cathepsin B at 1 uM using Z-Phe-Arg-AMC as substrate preincubated for 15 mins followed by substrate addition and measured for 60 mins by fluorescence assay; details: time 75.0 min
[13] = biological target: Procathepsin L (Homo sapiens) (UniProt P07711); experiment: Inhibition of human liver cathepsin L at 1 uM using Z-Phe-Arg-AMC as substrate preincubated for 15 mins followed by substrate addition and measured for 60 mins by fluorescence assay; details: time 75.0 min
[14] = biological target: T2, Cathepsin F (Homo sapiens); experiment: Inhibition of recombinant human cathepsin F expressed in baculovirus infected insect cells at 1 uM using Z-Phe-Arg-AMC as substrate preincubated for 15 mins followed by substrate addition and measured for 60 mins by fluorescence assay relative to control; details: time 75.0 min
Trypsin (Homo sapiens) [15] = biological target: T3, Trypsin (Homo sapiens); experiment: Inhibition of human trypsin at 1 uM using Boc-Gln-Ala-Arg-AMC as substrate preincubated for 15 mins followed by substrate addition and measured for 60 mins by fluorescence assay relative to control; type: protein assay; details: time 75.0 min
[16] = biological target: T1, Transmembrane protease serine 11D (Homo sapiens); experiment: Inhibition of recombinant human N-terminal His-tagged HAT (Ala42 to Ile418 residues) expressed in mouse NSO cells at 1 uM using Boc-Gln-Ala-Arg-AMC as substrate preincubated for 15 mins followed by substrate addition and measured for 60 mins by fluorescence assay relative to control; details: time 75.0 min

Compound | EC50 (Influenza A virus [1]) [µM] | CC50 at 72 h [2] [µM] | inhibition [3] | inhibition [4] | EC50 (Influenza A virus [6]) [µM] | inhibition [7] | MCC at 72 h [8] [µM] | inhibition [9] | inhibition (Trypsin (Homo sapiens) [10]) | further results
COC(=O)C[C@H](NC(=O)OCc1ccccc1)C(=O)N(C1CC1)C1(C(=O)NCc2ccccc2)CCN(Cc2ccccc2)CC1 | 1.8 | 8.1 | inactive | inactive | 2 | inactive | 20 | inactive | inactive | selectivity ratio [5]: 40
Cc1onc(-c2ccccc2)c1C(=O)N1CCN(c2ccc([N+](=O)[O-])cc2Cl)CC1 | – | – | – | – | – | – | – | – | – | Activity (Influenza A virus [11]): Active
CC(C)C[C@H](NC(=O)[C@@H]1C[C@H]1C(=O)O)C(=O)NCCCCNC(=N)N | – | – | – | – | – | – | – | – | – | inhibition [12]: Active; inhibition [13]: Active; inhibition [14]: 50%
CN(C)C(=O)COC(=O)Cc1ccc(OC(=O)c2ccc(NC(=N)N)cc2)cc1 | – | – | – | – | – | – | – | – | – | inhibition (Trypsin (Homo sapiens) [15]): 90%; inhibition [16]: 90%
CC(C)(C)OC(=O)N[C@@H](CC(=O)O)C(=O)N(Cc1ccc(F)cc1)C1(C(=O)NCc2ccccc2)CCNCC1 | > 100 | 49 | inactive | inactive | > 100 | inactive | 79 | inactive | inactive | –
